Data reported in patent publication US8044069B2, “Compounds as calcium channel blockers” (Abbott Laboratories, priority 2008, dated 2011).

Each compound was assayed against human Cav2.2 (Homo sapiens, UniProt Q00975) (assay: Assessment of calcium channel activity using FLIPR (Ca2+ influx in IMR32 cells)). Settings: IMR32 cells endogenously expressing human Cav2.2; 60 minute pre-incubation; 2 μM nifedipine; depolarized with 80 mM KCl, 5 mM CaCl2.
Type: cell-based
In short: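 FLIPR measured Ca2+ influx triggered by 80 mM KCl depolarization together with a step to 5 mM external CaCl2. Percent inhibition relative to uninhibited activity was fitted sigmoidally for IC50.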

Chain of human Cav2.2 (Q00975 whole entry): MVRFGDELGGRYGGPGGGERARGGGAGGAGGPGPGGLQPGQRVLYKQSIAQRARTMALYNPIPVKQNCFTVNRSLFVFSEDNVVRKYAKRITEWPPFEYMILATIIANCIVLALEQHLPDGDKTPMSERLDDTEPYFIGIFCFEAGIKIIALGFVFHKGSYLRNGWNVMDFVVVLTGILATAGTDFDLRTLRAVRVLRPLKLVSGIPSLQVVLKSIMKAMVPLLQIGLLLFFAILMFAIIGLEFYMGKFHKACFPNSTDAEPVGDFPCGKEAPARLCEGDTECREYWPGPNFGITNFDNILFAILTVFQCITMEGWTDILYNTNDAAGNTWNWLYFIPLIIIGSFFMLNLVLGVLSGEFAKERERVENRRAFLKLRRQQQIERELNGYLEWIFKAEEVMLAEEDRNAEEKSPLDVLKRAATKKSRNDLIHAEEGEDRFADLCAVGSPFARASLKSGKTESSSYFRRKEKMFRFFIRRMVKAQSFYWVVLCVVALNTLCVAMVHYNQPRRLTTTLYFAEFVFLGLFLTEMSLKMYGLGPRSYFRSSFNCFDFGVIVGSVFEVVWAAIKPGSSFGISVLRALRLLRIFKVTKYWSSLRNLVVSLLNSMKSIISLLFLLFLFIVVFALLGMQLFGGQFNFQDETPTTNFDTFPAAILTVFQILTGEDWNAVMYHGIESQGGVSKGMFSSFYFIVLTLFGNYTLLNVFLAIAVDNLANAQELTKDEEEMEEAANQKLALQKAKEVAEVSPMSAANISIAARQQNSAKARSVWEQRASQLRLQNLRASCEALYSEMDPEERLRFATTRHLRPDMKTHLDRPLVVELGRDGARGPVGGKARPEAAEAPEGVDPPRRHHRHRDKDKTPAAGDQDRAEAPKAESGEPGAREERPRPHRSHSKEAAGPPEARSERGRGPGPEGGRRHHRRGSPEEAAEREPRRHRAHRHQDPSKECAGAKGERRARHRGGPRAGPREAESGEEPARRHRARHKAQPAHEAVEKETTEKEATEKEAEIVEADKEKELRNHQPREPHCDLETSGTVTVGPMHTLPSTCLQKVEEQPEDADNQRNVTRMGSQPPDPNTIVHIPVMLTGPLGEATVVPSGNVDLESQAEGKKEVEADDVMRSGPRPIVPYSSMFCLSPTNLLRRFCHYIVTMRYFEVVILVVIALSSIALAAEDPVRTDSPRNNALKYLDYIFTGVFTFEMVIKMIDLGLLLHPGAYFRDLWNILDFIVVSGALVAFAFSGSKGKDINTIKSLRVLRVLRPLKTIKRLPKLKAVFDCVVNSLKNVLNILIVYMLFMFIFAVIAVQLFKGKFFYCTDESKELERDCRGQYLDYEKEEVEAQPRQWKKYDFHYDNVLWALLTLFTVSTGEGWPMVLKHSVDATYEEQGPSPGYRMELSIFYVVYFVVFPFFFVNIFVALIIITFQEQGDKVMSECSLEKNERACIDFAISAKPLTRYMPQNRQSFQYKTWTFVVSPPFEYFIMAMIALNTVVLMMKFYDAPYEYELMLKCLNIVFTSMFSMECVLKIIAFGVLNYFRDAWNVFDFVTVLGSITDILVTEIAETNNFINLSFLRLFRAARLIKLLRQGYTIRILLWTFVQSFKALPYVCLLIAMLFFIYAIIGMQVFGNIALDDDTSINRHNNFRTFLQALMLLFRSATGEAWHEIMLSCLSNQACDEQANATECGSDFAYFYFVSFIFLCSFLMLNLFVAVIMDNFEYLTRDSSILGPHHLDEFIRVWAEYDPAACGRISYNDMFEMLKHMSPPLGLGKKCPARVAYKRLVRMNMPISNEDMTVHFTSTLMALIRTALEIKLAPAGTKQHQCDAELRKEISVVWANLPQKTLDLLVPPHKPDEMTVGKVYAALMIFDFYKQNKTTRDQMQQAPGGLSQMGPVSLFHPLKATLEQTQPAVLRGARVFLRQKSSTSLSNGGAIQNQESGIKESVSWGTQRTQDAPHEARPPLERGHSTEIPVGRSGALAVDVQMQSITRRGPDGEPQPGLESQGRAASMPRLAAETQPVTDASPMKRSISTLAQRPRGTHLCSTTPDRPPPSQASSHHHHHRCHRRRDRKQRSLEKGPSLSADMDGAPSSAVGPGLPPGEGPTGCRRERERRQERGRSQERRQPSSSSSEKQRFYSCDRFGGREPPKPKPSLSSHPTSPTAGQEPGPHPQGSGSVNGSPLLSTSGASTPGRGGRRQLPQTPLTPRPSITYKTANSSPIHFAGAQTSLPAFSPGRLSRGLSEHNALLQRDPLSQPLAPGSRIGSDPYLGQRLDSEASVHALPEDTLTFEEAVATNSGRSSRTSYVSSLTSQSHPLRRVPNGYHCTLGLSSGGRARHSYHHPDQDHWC
Chain of human Cav2.2 (P54289 25-951 partner limits assumed): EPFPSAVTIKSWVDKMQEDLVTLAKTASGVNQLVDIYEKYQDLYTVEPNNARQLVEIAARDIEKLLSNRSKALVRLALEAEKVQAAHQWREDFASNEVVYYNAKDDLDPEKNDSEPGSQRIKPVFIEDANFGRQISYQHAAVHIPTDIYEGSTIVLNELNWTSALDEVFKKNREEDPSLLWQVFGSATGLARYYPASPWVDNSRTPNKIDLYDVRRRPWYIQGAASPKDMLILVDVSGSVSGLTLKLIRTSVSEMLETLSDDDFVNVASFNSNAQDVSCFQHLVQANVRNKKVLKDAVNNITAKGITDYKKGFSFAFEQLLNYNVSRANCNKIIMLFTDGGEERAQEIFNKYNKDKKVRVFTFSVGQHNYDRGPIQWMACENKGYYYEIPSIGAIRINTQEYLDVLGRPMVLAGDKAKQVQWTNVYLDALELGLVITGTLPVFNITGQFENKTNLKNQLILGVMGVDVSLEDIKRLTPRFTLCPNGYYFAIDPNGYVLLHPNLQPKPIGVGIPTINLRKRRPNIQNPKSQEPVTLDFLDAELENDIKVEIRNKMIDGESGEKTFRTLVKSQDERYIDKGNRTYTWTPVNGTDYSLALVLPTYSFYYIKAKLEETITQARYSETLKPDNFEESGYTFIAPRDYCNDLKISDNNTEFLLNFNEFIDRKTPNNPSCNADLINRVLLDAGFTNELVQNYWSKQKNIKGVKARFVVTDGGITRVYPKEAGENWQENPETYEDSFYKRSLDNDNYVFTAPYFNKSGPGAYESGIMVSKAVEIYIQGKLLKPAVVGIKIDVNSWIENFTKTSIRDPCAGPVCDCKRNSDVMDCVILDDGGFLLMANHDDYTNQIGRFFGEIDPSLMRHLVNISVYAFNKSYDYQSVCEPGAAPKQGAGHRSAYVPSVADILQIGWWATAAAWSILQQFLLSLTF
Chain of human Cav2.2 (P54289 952-1103 partner limits assumed): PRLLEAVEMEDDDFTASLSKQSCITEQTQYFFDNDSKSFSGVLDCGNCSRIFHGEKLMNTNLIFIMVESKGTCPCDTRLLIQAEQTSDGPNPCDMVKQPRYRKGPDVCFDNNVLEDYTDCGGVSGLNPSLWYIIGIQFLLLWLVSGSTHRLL
Chain of human Cav2.2 (P54284 whole entry partner): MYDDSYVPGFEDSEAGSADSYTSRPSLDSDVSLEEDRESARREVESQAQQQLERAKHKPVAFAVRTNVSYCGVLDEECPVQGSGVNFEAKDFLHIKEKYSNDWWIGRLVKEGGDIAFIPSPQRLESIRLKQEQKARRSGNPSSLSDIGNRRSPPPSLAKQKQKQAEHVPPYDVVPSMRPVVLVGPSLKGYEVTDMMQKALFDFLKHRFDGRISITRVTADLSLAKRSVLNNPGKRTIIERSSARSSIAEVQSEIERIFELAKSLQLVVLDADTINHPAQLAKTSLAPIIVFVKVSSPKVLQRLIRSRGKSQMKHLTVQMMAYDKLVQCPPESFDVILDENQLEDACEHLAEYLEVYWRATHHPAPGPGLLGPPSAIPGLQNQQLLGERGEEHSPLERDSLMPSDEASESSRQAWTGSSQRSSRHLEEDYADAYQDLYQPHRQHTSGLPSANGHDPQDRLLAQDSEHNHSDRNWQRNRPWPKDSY

SMILES	IC50
O=C1N(Cc2nc(-c3ccc(C(F)(F)F)cc3)no2)CCCC1(c1ccc(F)cc1)c1ccc(F)cc1 [Example 191, 3,3-bis(4-fluorophenyl)-1-({3-[4-(trifluoromethyl)phenyl]-1,2,4-oxadiazol-5-yl}methyl)piperidin-2-one]	6.87 µM
O=C(CN1CCC(c2ccc(F)cc2Cl)C1=O)N1Cc2ccc(C(F)(F)F)cc2C1 (centres unmarked) [Example 269, 3-(2-chloro-4-fluorophenyl)-1-{2-oxo-2-[5-(trifluoromethyl)-1,3-dihydro-2H-isoindol-2-yl]ethyl}pyrrolidin-2-one]	3.21 µM
O=C(CN1CCC[C@H](c2ccccc2)C1=O)N1Cc2ccc(F)cc2C1 (single isomer, unassigned) [Example 188]	> 30 µM
O=C1N(CCCc2nc(-c3ccc(C(F)(F)F)cc3)no2)CCC1(c1ccccc1)c1ccccc1 [Example 155, 3,3-diphenyl-1-(3-{3-[4-(trifluoromethyl)phenyl]-1,2,4-oxadiazol-5-yl}propyl)pyrrolidin-2-one]	4.37 µM
O=C(CN1CCNC(c2ccccc2)C1=O)N1CCN(C(c2ccccc2)c2ccccc2)CC1 (centres unmarked) [Example 102, 1-[2-(4-benzhydrylpiperazin-1-yl)-2-oxoethyl]-3-phenylpiperazin-2-one]	8.39 µM
O=C(CN1CCCC(c2ccccc2)C1=O)Nc1ccc(Cl)cn1 (centres unmarked) [Example 192, N-(5-chloropyridin-2-yl)-2-(2-oxo-3-phenylpiperidin-1-yl)acetamide]	12 µM
O=C(CN1CCC(c2ccccc2)(c2ccccc2)C1=O)NC(c1ccccc1)c1ccccc1 [Example 14, N-benzhydryl-2-(2-oxo-3,3-diphenylpyrrolidin-1-yl)acetamide]	0.97 µM
O=C(CN1CCNC(c2ccccc2)C1=O)N1CCN(C(c2ccc(F)cc2)c2ccc(F)cc2)CC1 (centres unmarked) [Example 103, 1-(2-{4-[bis(4-fluorophenyl)methyl]piperazin-1-yl}-2-oxoethyl)-3-phenylpiperazin-2-one]	10.6 µM
O=C1[C@H](c2ccc(F)cc2)CCN1Cc1nc(-c2ccc(C(F)(F)F)cc2)no1 (single isomer, unassigned) [Example 236]	2.75 µM
O=C(CN1CCC(c2ccc(F)cc2)C1=O)N1Cc2ccc(C(F)(F)F)cc2C1 (single isomer, unassigned; (-)) [Example 265, (−)-3-(4-fluorophenyl)-1-{2-oxo-2-[5-(trifluoromethyl)-1,3-dihydro-2H-isoindol-2-yl]ethyl}pyrrolidin-2-one]	11.1 µM
O=C1N(Cc2nc(-c3ccc(OC(F)(F)F)cc3)no2)CCCC1(c1ccccc1)c1ccccc1 [Example 199, 3,3-diphenyl-1-({3-[4-(trifluoromethoxy)phenyl]-1,2,4-oxadiazol-5-yl}methyl)piperidin-2-one]	5.98 µM
COc1ccc(C2(c3ccc(OC)cc3)CCCN(CCCN(C)Cc3cc(OC)cc(OC)c3)C2=O)cc1 [Example 127, 1-{3-[(3,5-dimethoxybenzyl)(methyl)amino]propyl}-3,3-bis(4-methoxyphenyl)piperidin-2-one]	1.53 µM
O=C1N(Cc2nc(-c3ccncc3)no2)CCC1(c1ccccc1)c1ccccc1 [Example 222, 3,3-diphenyl-1-[(3-pyridin-4-yl-1,2,4-oxadiazol-5-yl)methyl]pyrrolidin-2-one]	5.43 µM
CC1(C)C(=O)N(CCN2CCC(c3ccccc3)(c3ccccc3)C2=O)CCN1Cc1cccs1 [Example 65, 3,3-dimethyl-1-[2-(2-oxo-3,3-diphenylpyrrolidin-1-yl)ethyl]-4-(thien-2-ylmethyl)piperazin-2-one]	1.04 µM
CN1CCN(CC(=O)N2CCN(C(c3ccc(F)cc3)c3ccc(F)cc3)CC2)C(=O)C1c1ccccc1 (centres unmarked) [Example 104, 1-(2-{4-[bis(4-fluorophenyl)methyl]piperazin-1-yl}-2-oxoethyl)-4-methyl-3-phenylpiperazin-2-one]	4.7 µM
O=C1N(Cc2nc(-c3ccc(Cl)cc3)no2)CCC1(c1ccccc1)c1ccccc1 [Example 193, 1-{[3-(4-chlorophenyl)-1,2,4-oxadiazol-5-yl]methyl}-3,3-diphenylpyrrolidin-2-one]	4.67 µM
O=C(CN1CCC(c2ccccc2)(c2ccccc2)C1=O)Nc1ccc(C(F)(F)F)cn1 [Example 246, 2-(2-oxo-3,3-diphenylpyrrolidin-1-yl)-N-[5-(trifluoromethyl)pyridin-2-yl]acetamide]	3.77 µM
COc1ccccc1N1CCN(CCN2CCCC(c3ccc(F)cc3)(c3ccc(F)cc3)C2=O)CC1 [Example 137, 3,3-bis(4-fluorophenyl)-1-{2-[4-(2-methoxyphenyl)piperazin-1-yl]ethyl}piperidin-2-one]	1.1 µM
O=C(CN1CCC(c2ccccc2)(c2ccccc2)C1=O)N1CCC[C@H]2CN(C(c3ccccc3)c3ccccc3)C[C@H]21 [Example 50, 1-{2-[(4aS,7aS)-6-benzhydryloctahydro-1H-pyrrolo[3,4-b]pyridin-1-yl]-2-oxoethyl}-3,3-diphenylpyrrolidin-2-one]	2.62 µM
O=C1C(c2ccc(F)cc2)CCN1Cc1nc(-c2ccc(C(F)(F)F)cc2)no1 (centres unmarked) [Example 189, 3-(4-fluorophenyl)-1-({3-[4-(trifluoromethyl)phenyl]-1,2,4-oxadiazol-5-yl}methyl)pyrrolidin-2-one]	5.82 µM
O=C(CN1CCC(c2ccc(F)cc2)(c2ccc(F)cc2)C1=O)N1CCC(c2ccc(F)cc2)(c2ccc(F)cc2)C1 [Example 204, 1-{2-[3,3-bis(4-fluorophenyl)pyrrolidin-1-yl]-2-oxoethyl}-3,3-bis(4-fluorophenyl)pyrrolidin-2-one]	3.04 µM
COc1ccc(C2(c3ccc(OC)cc3)CCN(CCN(C)CC(O)COc3cccc4ncccc34)C2=O)cc1 (centres unmarked) [Example 106, 1-{2-[[2-hydroxy-3-(quinolin-5-yloxy)propyl](methyl)amino]ethyl}-3,3-bis(4-methoxyphenyl)pyrrolidin-2-one]	0.73 µM
O=C(CN1CCC[C@@H](c2ccccc2)C1=O)N1Cc2ccc(F)cc2C1 (single isomer, unassigned) [Example 187]	> 30 µM
O=C(CN1CCCC(c2ccccc2)C1=O)N1CCN(C(c2ccc(F)cc2)c2ccc(F)cc2)CC1 (centres unmarked) [Example 92, 1-(2-{4-[bis(4-fluorophenyl)methyl]piperazin-1-yl}-2-oxoethyl)-3-phenylpiperidin-2-one]	1.01 µM
O=C(CN1CCC(c2ccc(F)cc2)(c2ccc(F)cc2)C1=O)NC1CN(Cc2ccccc2)C1 [Example 242, N-(1-benzylazetidin-3-yl)-2-[3,3-bis(4-fluorophenyl)-2-oxopyrrolidin-1-yl]acetamide]	3.17 µM

More lines, now with the values ahead:

IC50	SMILES
1.01 µM	O=C(CN1CCC(c2ccc(F)cc2)(c2ccc(F)cc2)C1=O)N1CCN(Cc2cccc(C(F)(F)F)c2)CC1 [Example 60, 3,3-bis(4-fluorophenyl)-1-(2-oxo-2-{4-[3-(trifluoromethyl)benzyl]piperazin-1-yl}ethyl)pyrrolidin-2-one]
1.14 µM	O=C(CN1CCC(c2ccccc2)(c2ccccc2)C1=O)N1CCN(Cc2cccc(C(F)(F)F)c2)C(=O)C1 [Example 29, 4-[(2-oxo-3,3-diphenylpyrrolidin-1-yl)acetyl]-1-[3-(trifluoromethyl)benzyl]piperazin-2-one]
5.03 µM	O=C1N(Cc2nc(Cc3ccc(Cl)cc3)no2)CCCC1(c1ccccc1)c1ccccc1 [Example 207, 1-{[3-(4-chlorobenzyl)-1,2,4-oxadiazol-5-yl]methyl}-3,3-diphenylpiperidin-2-one]
1.32 µM	O=C(CN1CCCC(c2ccccc2)(c2ccccc2)C1=O)N1CCN(Cc2cccc(Cl)c2)CC1 [Example 81, 1-{2-[4-(3-chlorobenzyl)piperazin-1-yl]-2-oxoethyl}-3,3-diphenylpiperidin-2-one]
1.8 µM	O=C(CN1CCCC(c2ccccc2)(c2ccccc2)C1=O)N1CCN(Cc2ccc(Cl)cc2Cl)CC1 [Example 169, 1-{2-[4-(2,4-dichlorobenzyl)piperazin-1-yl]-2-oxoethyl}-3,3-diphenylpiperidin-2-one]
6.05 µM	O=C(CN1CCCC(c2ccccc2)(c2ccccc2)C1=O)N1CCOC(c2ccccc2)(c2ccccc2)C1 [Example 69, 1-[2-(2,2-diphenylmorpholin-4-yl)-2-oxoethyl]-3,3-diphenylpiperidin-2-one]
1.49 µM	O=C(CN1CCC(c2ccccc2)(c2ccccc2)C1=O)NCc1ccc(C(F)(F)F)cc1 [Example 8, 2-(2-oxo-3,3-diphenylpyrrolidin-1-yl)-N-[4-(trifluoromethyl)benzyl]acetamide]
1.83 µM	O=C(CN1CCC(c2ccccc2)(c2ccccc2)C1=O)N1CCC(c2ccccc2)C1 (centres unmarked) [Example 21, 1-[2-oxo-2-(3-phenylpyrrolidin-1-yl)ethyl]-3,3-diphenylpyrrolidin-2-one]
1.64 µM	O=C(CN1CCCC(c2ccccc2)(c2ccccc2)C1=O)N1C[C@@H]2CCCN(C(c3ccccc3)c3ccccc3)[C@@H]2C1 [Example 88, 1-{2-[(4aS,7aS)-1-benzhydryloctahydro-6H-pyrrolo[3,4-b]pyridin-6-yl]-2-oxoethyl}-3,3-diphenylpiperidin-2-one]
2.61 µM	O=C(CN1CCCC(c2ccccc2)(c2ccccc2)C1=O)N1CCC(C(c2ccccc2)c2ccccc2)CC1 [Example 76, 1-[2-(4-benzhydrylpiperidin-1-yl)-2-oxoethyl]-3,3-diphenylpiperidin-2-one]
3.39 µM	O=C1N(Cc2nc(CCc3ccccc3Cl)no2)CCCC1(c1ccccc1)c1ccccc1 [Example 262, 1-({3-[2-(2-chlorophenyl)ethyl]-1,2,4-oxadiazol-5-yl}methyl)-3,3-diphenylpiperidin-2-one]
0.96 µM	O=C(CN1CCC(c2ccccc2)(c2ccccc2)C1=O)N1CCC(C(O)(c2ccccc2)c2ccccc2)CC1 [Example 34, 1-(2-{4-[hydroxy(diphenyl)methyl]piperidin-1-yl}-2-oxoethyl)-3,3-diphenylpyrrolidin-2-one]
0.94 µM	O=C(CN1CCCC(c2ccccc2)(c2ccccc2)C1=O)NC1CN(Cc2cccc(C(F)(F)F)c2)C1 [Example 180, 2-(2-oxo-3,3-diphenylpiperidin-1-yl)-N-{1-[3-(trifluoromethyl)benzyl]azetidin-3-yl}acetamide]
